Measured values published in US10994016B2, “Graphene oxide mediated cellular delivery of gadolinium-labeled molecules” (Northwestern University, priority 2015, dated 2021).

Tested on: HeLa cells
Experiment: Cellular delivery studies with and without GO co-incubation, HeLa
Assay type: cell-based
Description: ICP-MS Samples were prepared in 15-mL conical tubes by adding ACS reagent grade nitric acid (70%), followed by incubation at 70° C. overnight to allow for complete sample digestion. The effectiveness of this digestion protocol was previously validated for GO. After incubation, a multi-element internal standard (containing Bi, Ho, In, Li, Sc, Tb, and Y, Inorganic Ventures, Christiansburg, Va.) and milli-Q water (18.2 MΩ·cm) were added to produce a final sample of 3% (v/v) nitric acid and 5 ng/mL internal standard.
ICP-MS was performed on a computer-controlled (Plasmalab software) Thermo X series II ICP-MS (Thermo Fisher Scientific, Waltham, Mass., USA) operating in standard mode equipped with an ESI SC-2 autosampler (Omaha, Nebr., USA). Each sample was acquired using 1 survey run (10 sweeps) and 3 main (peak jumping) runs (100 sweeps). The isotopes selected for analysis were Gd with In and Ho isotopes selected as internal standards for data interpolation. Instrument performance is optimized daily through an autotune followed by verification via a performance report (passing manufacturer specifications). Instrument calibration was accomplished by preparing individual-element Gd standards (Inorganic Ventures, Christiansburg, Va., USA) using concentrations of 0.78125, 1.5625, 3.125, 6.25, 12.50, 25.00, 50.00, 100.0, and 200.0 ng/mL containing 3.0% nitric acid (v/v) and 5.0 ng/mL of multi-element internal standard.
Dulbecco's modified phosphate buffered saline (DPBS), media, and dissociation reagents were purchased from Life Technologies (Carlsbad, Calif.). CorningBrand® cell culture consumables (flasks, plates, etc.) and sera were purchased from VWR Scientific (Radnor, Pa.). HeLa cells (ATCC® CCL-2™) and KB cells (ATCC® CCL-17™) were purchased from the American Type Culture Collection (ATCC, Manassas, Va.) and cultured in phenol red-free minimum essential media (MEM) supplemented with 10% fetal bovine serum (FBS). Prior to all experiments, cells were plated and allowed to incubate for 24 hours before dosing. Cells were harvested with 0.25% TrypLE for 5 minutes at 37° C. in a 5.0% CO2 incubator. For sterilization, all Gd(III)-labeled molecules were filtered with 0.2 μm sterile filters prior to concentration determination and storage at 4° C. GO was used as prepared without further sterilization. […] Cells were grown in a humidified incubator operating at 37° C. and 5.0% CO2.
Cell counting was conducted using a Guava EasyCyte Mini Personal Cell Analyzer (EMD Millipore, Billerica, Mass.). After cell harvesting, an aliquot (50 μL) of the cell suspensions was mixed with Guava ViaCount reagent (150 μL) and allowed to stain at room temperature for at least 5 minutes. The dilution factor of 4 was determined based upon optimum machine performance (20-150 cells/μL). After vortexing for 10 sec, stained cells were counted using a Guava EasyCyte Mini Personal Cell Analyzer (PCA) using the ViaCount software module. For each sample, 1000 events were acquired. Gating of live/dead and cell/debris classifications were performed manually by the operator.
Cellular delivery studies were performed with HeLa and KB cells. HeLa and KB were plated at a cell density of approximately 25,000 and 50,000 cells per well, respectively, in a 24-well plate as counted by a hemocytometer. Stock solutions of 1-14 (1 mM), 150 nm GO (100 μg/mL), and 1500 nm GO (100 μg/mL) were prepared using sterile Milli-Q water. Prior to dosing, 80 μL ([…]) of each GO (150 nm and 1500 nm) and 80 μL (80 nmol) of each Gd(III)-labeled molecule (1-14) were mixed and allowed to adsorb for at least 15 minutes. 150 μL Gd(III)-GO solutions were added to 250 μL media to give a final concentration of 188 μM Gd and 18.8 μg/mL GO. Cells were incubated with the mixture of Gd(III)-labeled molecules and GO for […]. To harvest, cells were rinsed in-plate three times with 500 μL PBS and trypsinized using 100 μL 0.25% TrypLE. […]

## Diethylenetriaminepentaacetic acid gadolinium(III) dihydrogen salt hydrate [Molecule 11]
35 mM Magnevist, 20 μg/mL GO, 24-well plates
  Enhancement by GO: 3.3 ×
6-well plates
  Enhancement by GO: 3.1 ×
150 nm GO, mixture added directly to media
  Delivery enhancement without adsorption time: abolished
1500 nm GO, 188 μM Gd(III), 18.8 μg/mL GO
  Delivery enhancement without adsorption time: same result
With GO, 35 mM Magnevist, 20 μg/mL GO (150 nm), 17 trials
  Magnevist uptake: 515±319 fmol Gd/cell
With GO, 35 mM Magnevist, 20 μg/mL GO, 24-well plates, N=11
  Typical cellular Gd(III) content: 299±67 fmol/cell
With GO, 6-well plates, N=13
  Loading (cellular Gd(III) content): 151±56 fmol/cell
Without GO, 35 mM Magnevist, 10 trials
  Magnevist uptake: 115±32 fmol Gd/cell
Without GO, 35 mM Magnevist, 24-well plates, N=4
  Typical cellular Gd(III) content: 91±9 fmol/cell
Without GO, 6-well plates, N=4
  Loading (cellular Gd(III) content): 49±19 fmol/cell
